Tests used:
Type in all cases: cell-based
E. Coli (JMR 223-MC4100) = assay: MIC in LB culture; conditions: overnight 37° C.
Procedure: An E. Coli (JMR 223-MC4100) plate was grown up overnight in LB agar at 37° C. A good colony was selected and added to 5 mL LB growth media. This was incubated at 37° C. with shaking at 250 rpm until the solution reaches an OD of at least 0.5 or higher at 600 nm. A final solution was diluted 500× to an OD of 0.001, correlating to a CFU of 1×10^6. 5 ml solutions of the diluted bacterial broth were measured out. Liptins were added to make solutions of 20 μM, 15 μM, 10 μM, 5 μM, 4 μM, 3 μM, 2 μM, and 1 μM (This means adding 0.2 mL, 0.15 mL, 0.1 mL, 0.05 mL, 0.04 mL, 0.03 mL, 0.02 mL, 0.01 mL of the 500 μM solution). Cultures were allowed to incubate overnight at 37° C. with shaking at 250 rpm. The following day, cultures were analyzed to evaluate the presence or absence of bacterial growth by spectrophotometry at 600 nm (0.66 mg of liptin in 0.95 mL of water; 0.15 OD Diluted 150× to OD of 0.001). […] Growth was not observed in the 2 μM and up solutions. See FIGS. 11A-11B for a visual image of the E. coli cultures.

[1] = test system: E. coli, Staphylococcus aureus, Enterococcus faecalis; assay: MIC of liptin 3e, overall statement; conditions: LB culture
E. coli (MC4100) = assay: Overnight growth study in LB broth
Text: This spectrum is identical to the spectrum of just liptin in water illustrating that the liptin is not degraded or metabolized when exposed to bacteria over long periods of time.

[2] = test system: Escherichia coli str. MC4100; assay: Long term growth study in brain-heart infusion medium
Procedure: (§1) Staphylococcus aureus str. ATCC 29213 was grown as shake-tubes in brain-heart infusion medium supplemented with liptin and culture densities were measured by turbidity (FIG. 13A). At 0.5 μM 3e, there was an 8-h lag phase before culture density began to increase, which was not seen without addition of liptin 3e. Further, the growth rate was substantially lower over the next 12 h as culture density approached that of controls. Lag phases were on the order of days to weeks at liptin concentrations of ≥1.5 μM, and slow recovery followed. […] Growth of Escherichia coli str. […] Our novel antibacterial compounds attack plasma membranes through a less specific mode of action, which may avoid the pitfalls that lead to antibiotic resistance.

[3] = test system: Staphylococcus aureus str. ATCC 29213; assay: as above
Procedure: as §1

[4] = test system: S. aureus plasma membrane; assay: Plasma membrane depolarization, DiS-C2(5) fluorescence; conditions: 0.69-2.6 μM added at 90 s
Procedure: The graph in FIGS. 15A-15C represents the depolarization of S. aureus plasma membrane measured by an increase in the fluorescence of 3,3-diethylthiodicabodyanine iodide. The dye, which has direct access to the Gram-positive plasma membrane, becomes highly fluorescent in membranes where polarization is lost. […] The membrane effects were measured against the known membrane-disruptive agent, cationic steroid antimicrobial-25 (CSA-25), one of a group of cholic acid-derived antimicrobial also known as ceragenins. This assay measured the effects of the Ammonium-picket porphyrin alone those of CSA-25 alone or a combination of Ammonium-picket porphyrin and CSA-25.
Bacterial cultures were grown overnight in TSB at 37° C. Cells were harvested by centrifugation and washed in a buffer containing 250 mM sucrose, 5 mM MgSO4, and 10 mM potassium phosphate (pH 7.0). After three washings, pellets were re-suspended in the same buffer. […] Fluorescence measurements were taken at 30-s intervals before and after addition of ceragenins. FIG. 15A illustrates the depolarization of S. aureus measured by an increase in fluorescence of 3,3′ diethylthiodicarbodyanine iodide (DiS-C2(5)). […]
FIG. 15B illustrates the depolarization of S. aureus measured by an increase in fluorescence of 3,3′ diethylthiodicarbodyanine iodide. […]

[5] = test system: E. coli BL 21 (Tuner pLysS); assay: Tetracycline-induced YqhD expression, gel electrophoresis; conditions: 10 μM
Red blood cells (RBCs) = assay: Erythrocyte toxicity, hemoglobin release at 414 nm; conditions: 2.5-5 μM, 30 minutes, 37° C.
Procedure: Toxicity of liptin 3e to eukaryotic erythrocytes was assessed by UV/Visible spectroscopy, whereby the change in absorbance at 414 nm was used to quantify the release of hemoglobin, where 100% hemolysis was measured by adding 1% Triton X-100 detergent. Red blood cells (RBCs) were suspended in a buffer of 25 mM TRIS and 1.5 mM dihydrogenphosphate anion (serum inorganic phosphate levels). To the RBCs samples was added differing concentration of 3e—2.5 μM, 5 μM, 7.5 μM, and 10 μM, as well as control containing no 3e, and after 30 minutes incubation and gentle shaking at 37° C. spectra were obtained.

[6] = test system: Gram-positive, Gram-negative, and Mycobacteria; assay: Growth curves in BHI culture with liptin 3e
Text: Growth curves were generated from liquid shake-flask cultures using absorbance measurements at 600 nm at different concentrations of liptin 3e. Uninoculated control flasks were used as blanks. Absorbance values of 0.1 OD unit was considered reasonable threshold for positive growth. […] Liptin exposure appears to stop bacterial growth, as evidenced by long lag phases, which increase with liptin concentration. In most cases, cultures recover, but growth rates and maximum cell densities are decreased with liptin treatment.
Bacterial growth rates were reduced by liptin 3e treatment in a concentration-dependent manner. Rates were determined as the slope of the log phase of the growth curve, after the lag phase. An exponential relationship exists with marginally significant differences (p<0.1).
Maximum culture densities represent the carrying capacity of a culture flask.

[7] = E. coli and S. aureus, concentration-dependent

In the case of `NCC(=O)Nc1ccccc1-c1c2nc(c(-c3ccccc3NC(=O)CN)c3ccc([nH]3)c(-c3ccccc3NC(=O)CN)c3nc(c(-c4ccccc4NC(=O)CN)c4ccc1[nH]4)C=C3)C=C2.O=C(O)C(F)(F)F.O=C(O)C(F)(F)F.O=C(O)C(F)(F)F.O=C(O)C(F)(F)F` [Liptin 3e], the MIC (E. Coli (JMR 223-MC4100)) is reported as 1 to 2 µM, the MIC [1] is reported as “less than 2 μM” and the “stability: UV/Visible spectrum of membrane-bound liptin” value (E. coli (MC4100); 12 hours in bacterial culture) is reported as “no change”. For the same molecule, the “time until bacterial replication completely stops” value (E. coli (MC4100); one-time addition of 10 μM, growth phase, 37° C., OD=0.2, stopped for 12 hours) was 1 to 2 h, the lag phases ([2]; 1.5 μM) was 8 h and the lag phases ([2]; 10 μM) was “greater than 24 h”. The lag phase ([3]; 0.5 μM) was 8 h, the lag phases ([3]; ≥1.5 μM) was “days to weeks” and the “depolarization: fluorescence of 3,3-diethylthiodicabodyanine iodide” value [4] was “increased in a concentration-dependent manner”. The protein synthesis [5] was “most protein synthesis was effectively disrupted”, the “damage to red blood cells (hemolysis)” value (Red blood cells (RBCs)) was 4.5-11% and the bacterial growth rates [6, 7] was “reduces bacterial growth rates”. The maximum culture density [6, 7] was “decreases maximum culture density” and the “antibacterial activity from growth curves” value ([6]; one inoculation, BHI) was “highly bacteriostatic activity”.

— patent publication US10668048B2, “Compounds for inhibiting bacterial growth via phosphatidylglycerol binding” (Wichita State University, priority 2016, dated 2020)
